Measurements taken from patent publication US20240358693A1, “METHODS OF TREATING PAIN” (Aisa Pharma, Inc., priority 2023, published 2024).

Tested on: participants with SSc-RP
Experiment: Scleroderma Health Assessment Questionnaire (SHAQ): disability indices and visual analog scales
Assay type: in vivo, human
Conditions: Day 12
Source text: The standard, validated, patient reported outcome measures tool for SSc patients, the Scleroderma Health Assessment Questionnaire (SHAQ), will be used to assess the participant qualify of life. Details are attached in the Appendix. The participant quality of life will be scored, and a disability index calculated for each questionnaire completed by the patient at Screening and each in-clinic visit. The absolute change in participant quality of life from baseline to the end of each dosing period will be calculated similar to frequency data as before.
The SHAQ includes a Raynaud's VAS, which will be reported at screening and each in-clinic visit. The absolute change in Raynaud-VAS, assessed by the participants response to the SHAQ question ‘In the past 7 days, how much have your Raynaud's interfered with your daily activities?’ at baseline and the end of each dosing period will be calculated similar to frequency data as before.
The SHAQ is used to calculate a Disability Index to assess the participant qualify of life. The eight categories assessed by the Disability Index are 1) dressing and grooming, 2) arising, 3) eating, 4) walking, 5) hygiene, 6) reach, 7) grip, and 8) common daily activities. For each of these categories, patients report the amount of difficulty they have in performing two or three specific activities.
There are four possible responses for the Disability Index questions: • Without any difficulty=0 • With some difficulty=1 • With much difficulty=2 • Unable to do=3. • The highest score reported by the patient for any component question of the eight categories determines the score for that category. • If a component question is left blank or the response is too ambiguous to assign a score, then the score for that category is determined by the remaining completed question(s). • If all component questions are blank or if more than one answer is given, then follow up with the respondent is required. • If the respondent's mark is between the response columns, then move it to the closest one. If it's directly between the two, move it to the higher one.
Each of the disability items on the SHAQ has a companion aids/devices variable that is used to record what type(s) of assistance, if any, the participant uses for his/her usual activities. These variables (see below) are coded as follows: • 0=No assistance is needed. • 1=A special device is used by the patient in his/her usual activities. • 2=The patient usually needs help from another person. • 3=The patient usually needs BOTH a special device AND help from another person.
The scoring variables and scoring rules permit the computation of two disability indices, the Standard Disability Index and the Alternative Disability Index.
This question results in a new set of category scores that are computed by adjusting the score for each category, if necessary, based on the patient's use of an aid or device or assistance for that category. If either devices and/or help from another person are checked for a category, the score is set to “2”, unless the score is already “3” (i.e., scores of “0” or “1” are increased to “2”). For example, if the highest score for the dressing category is “1”, and the patient says they use a device for dressing, the computed category score would be “2”. The sum of the computed categories scores is then calculated and divided by the number of categories answered. This gives a score in the 0 to 3 range.
The aid and device variables are not used to calculate the alternative disability index; it is calculated by adding the scores for each of the categories and dividing by the number of categories answered. This gives a score in the 0 to 3 range.
The standard, validated, patient reported outcome measures tool for SSc patients, the SHAQ, was collected at the time points specified in the study schedules (FIG. 2 and FIGS. 4A and 4B) to assess the participant's quality of life. The SHAQ included a Raynaud's VAS that will also be reported separately.

[1] = Modified ITT, Part A, dose Cilnidipine 20 mg, or 20 mg + Tadalafil 5 mg
[2] = Pooled Cilnidipine 10 mg and Cilnidipine 10 mg + Tadalafil 5 mg (N = 9), PP Population Part A
[3] = Pooled Cilnidipine 10 mg and Cilnidipine 10 mg + Tadalafil 5 mg (N = 9), PP Population Part A, Subject 01-110 score excluded
[4] = Pooled Cilnidipine 20 mg and Cilnidipine 20 mg + Tadalafil 5 mg (N = 8), PP Population Part A

Compound: COCCOC(=O)C1=C(C)NC(C)=C(C(=O)OC/C=C/c2ccccc2)C1c1cccc([N+](=O)[O-])c1 (centres unmarked) [Cilnidipine, cilnidipine]
- SHAQ Finger Ulcers, Percent Change from Baseline, Median [1]: 35.29%
- SHAQ Standard Disability Index, Change from Baseline, Mean [1]: −0.125
- SHAQ Standard Disability Index, Change from Baseline, Median [1]: −0.125
- SHAQ Standard Disability Index, Percent Change from Baseline, Mean [1]: −50.00%
- SHAQ Standard Disability Index, Percent Change from Baseline, Median [1]: −50.00%
- SHAQ Visual Analog Scale-Breathing Problems, Change from Baseline, Mean [1]: −0.833
- SHAQ Visual Analog Scale-Breathing Problems, Change from Baseline, Median [1]: −0.800
- SHAQ Visual Analog Scale-Breathing Problems, Percent Change from Baseline, Mean [1]: −5.56%
- SHAQ Visual Analog Scale-Breathing Problems, Percent Change from Baseline, Median [1]: −66.67%
- SHAQ Visual Analog Scale-Intestinal Problems, Change from Baseline, Mean [1]: 0.300
- SHAQ Visual Analog Scale-Intestinal Problems, Change from Baseline, Median [1]: 0.300
- SHAQ Visual Analog Scale-Intestinal Problems, Percent Change from Baseline, Mean [1]: 35.00%
- SHAQ Visual Analog Scale-Intestinal Problems, Percent Change from Baseline, Median [1]: 35.00%
- SHAQ Visual Analog Scale-Pain, Change from Baseline, Mean [1]: −1.100
- SHAQ Visual Analog Scale-Pain, Change from Baseline, Median [1]: −0.800
- SHAQ Visual Analog Scale-Pain, Percent Change from Baseline, Mean [1]: −52.56%
- SHAQ Visual Analog Scale-Pain, Percent Change from Baseline, Median [1]: −53.33%
- SHAQ Visual Analog Scale-Raynaud's, Change from Baseline, Mean [1]: −1.267
- SHAQ Visual Analog Scale-Raynaud's, Change from Baseline, Median [1]: −1.100
- SHAQ Visual Analog Scale-Raynaud's, Percent Change from Baseline, Mean [1]: −48.63%
- SHAQ Visual Analog Scale-Raynaud's, Percent Change from Baseline, Median [1]: −44.00%
- SHAQ Visual Analogue Scale - Finger Ulcers, Change from Baseline, Mean [2]: −0.267
- SHAQ Visual Analogue Scale - Finger Ulcers, Change from Baseline, Median [2]: −0.100
- SHAQ Visual Analogue Scale - Finger Ulcers, Percent Change from Baseline, Mean [2]: −46.06%
- SHAQ Visual Analogue Scale - Finger Ulcers, Percent Change from Baseline, Median [2]: −31.94%
- SHAQ Visual Analogue Scale - Intestinal Problems, Change from Baseline, Mean [2]: −1.228
- SHAQ Visual Analogue Scale - Intestinal Problems, Change from Baseline, Median [2]: −0.250
- SHAQ Visual Analogue Scale - Intestinal Problems, Percent Change from Baseline, Mean [2]: −27.93%
- SHAQ Visual Analogue Scale - Intestinal Problems, Percent Change from Baseline, Median [2]: −54.13%
- SHAQ Visual Analogue Scale - Overall Disease Severity, Change from Baseline, Mean [2]: −0.606
- SHAQ Visual Analogue Scale - Overall Disease Severity, Change from Baseline, Median [2]: −0.700
- SHAQ Visual Analogue Scale - Overall Disease Severity, Percent Change from Baseline, Mean [2]: −24.68%
- SHAQ Visual Analogue Scale - Overall Disease Severity, Percent Change from Baseline, Median [2]: −30.93%
- SHAQ Visual Analogue Scale - Pain, Change from Baseline, Mean [2]: −0.633
- SHAQ Visual Analogue Scale - Pain, Change from Baseline, Median [2]: −0.700
- SHAQ Visual Analogue Scale - Pain, Percent Change from Baseline, Mean [2]: −20.07%
- SHAQ Visual Analogue Scale - Pain, Percent Change from Baseline, Median [2]: −21.87%
- SHAQ Visual Analogue Scale - Raynaud's, Change from Baseline, Mean [2]: −0.414
- SHAQ Visual Analogue Scale - Raynaud's, Change from Baseline, Median [2]: −0.100
- SHAQ Visual Analogue Scale - Raynaud's, Percent Change from Baseline, Mean [2]: −9.97%
- SHAQ Visual Analogue Scale - Raynaud's, Percent Change from Baseline, Median [2]: −4.39%
- SHAQ Visual Analogue Scale - Breathing Problems, Change from Baseline, Mean [3]: −0.175
- SHAQ Visual Analogue Scale - Breathing Problems, Change from Baseline, Median [3]: 0.000
- SHAQ Visual Analogue Scale - Breathing Problems, Percent Change from Baseline, Mean [3]: −26.05%
- SHAQ Visual Analogue Scale - Breathing Problems, Percent Change from Baseline, Median [3]: −21.33%
- SHAQ Visual Analogue Scale - Breathing Problems, Change from Baseline, Mean [4]: 0.225
- SHAQ Visual Analogue Scale - Breathing Problems, Change from Baseline, Median [4]: 0.150
- SHAQ Visual Analogue Scale - Breathing Problems, Percent Change from Baseline, Mean [4]: 93.65%
- SHAQ Visual Analogue Scale - Breathing Problems, Percent Change from Baseline, Median [4]: 31.58%
- SHAQ Visual Analogue Scale - Finger Ulcers, Change from Baseline, Mean [4]: −0.950
- SHAQ Visual Analogue Scale - Finger Ulcers, Change from Baseline, Median [4]: −0.050
- SHAQ Visual Analogue Scale - Finger Ulcers, Percent Change from Baseline, Mean [4]: −15.69%
- SHAQ Visual Analogue Scale - Finger Ulcers, Percent Change from Baseline, Median [4]: −48.04%
- SHAQ Visual Analogue Scale - Intestinal Problems, Change from Baseline, Mean [4]: 0.200
- SHAQ Visual Analogue Scale - Intestinal Problems, Change from Baseline, Median [4]: 0.000
- SHAQ Visual Analogue Scale - Intestinal Problems, Percent Change from Baseline, Mean [4]: −6.27%
- SHAQ Visual Analogue Scale - Intestinal Problems, Percent Change from Baseline, Median [4]: −29.44%
- SHAQ Visual Analogue Scale - Overall Disease Severity, Change from Baseline, Mean [4]: −1.425
- SHAQ Visual Analogue Scale - Overall Disease Severity, Change from Baseline, Median [4]: −1.550
- SHAQ Visual Analogue Scale - Overall Disease Severity, Percent Change from Baseline, Mean [4]: −47.98%
- SHAQ Visual Analogue Scale - Overall Disease Severity, Percent Change from Baseline, Median [4]: −48.23%
- SHAQ Visual Analogue Scale - Pain, Change from Baseline, Mean [4]: −0.500
